Data from US20050192360A1, “Method of treatment of pancreatic cancer” (priority 1999, published 2005).
Counter-ions that a name gives are not always drawn. Like-named read-outs stand apart in the source and are kept apart here.

Experiments:
[1] = tested on: xenografted Panc-1 human pancreatic tumors; assay: Human pancreatic cancer xenograft mouse model, monotherapy or combination with gemcitabine (Example 7); assay type: in vivo, male athymic nude (Ncr) mice; details: for Tumor re-growth after termination of treatment: 19 days post-treatment observation
Protocol: Human pancreatic cancer Panc-1 cells (2×10^6) are implanted subcutaneously into male athymic nude (Ncr) mice. […] The combination therapy group receives β-lapachone and gemcitabine on the same day in each treatment. Following treatment, the animals are observed for an additional 19 days. Tumors are measured throughout the treatment and post-treatment periods.

[2] = tested on: xenografted Panc-1 human pancreatic tumors; assay type: in vivo, athymic female nude mice (Ncr); details: 5 treatments
Protocol: Athymic female nude mice (Ncr) are inoculated subcutaneously with 4×10^6 human Panc-1 pancreatic cancer cells, and the tumors are allowed to grow to […] in size. The animals are randomized into three groups. […] Mean tumor volume is then analyzed.

normal cells = assay: In vitro experiments using cell lines of various tissue origins; assay type: cell-based
[3] = tested on: E2F-1 protein in Paca-2 cells; assay: Western blot of E2F-1 protein expression; assay type: cell-based, human
Protocol: Cells are harvested and whole cell lysates were prepared and resolved by SDS/PAGE, then Western blots are prepared using E2F-1 antibody obtained from Santa Cruz Biotechnology (Santa Cruz, Calif.) and an enhanced chemiluminescence assay system (Amersham Pharmacia).

Structure (SMILES)	Reduction of tumor size at termination of treatment ([1]; gemcitabine 120 mg/kg i.p., ten treatments every three days)	Tumor re-growth after termination of treatment ([1]; gemcitabine 120 mg/kg i.p.)	Mean tumor volume ([2]; 40 mg/kg intraperitoneally every three days)	Mean tumor volume ([2]; 60 mg/kg intraperitoneally every three days)	Tumor regression at termination of treatment ([1]; β-lapachone alone 40 mg/kg i.p., ten treatments every three days)	Tumor re-growth after termination of treatment ([1]; β-lapachone alone 40 mg/kg i.p.)	Toxicity to normal cells in vitro (normal cells)	Concentration at which E2F-1 protein is induced (lowest concentration tested) ([3]; 0.5 hours exposure)	E2F-1 protein expression (Western blot) ([3]; 0.5 hours exposure, 0.5, 2 or 4 μM)
Nc1ccn([C@@H]2O[C@H](CO)[C@@H](O)C2(F)F)c(=O)n1 [gemcitabine, 2′-deoxy-2′,2′-difluorocytidine monohydrochloride (β-isomer), reference compound]	30-40%	400%	–	–	–	–	–	–	–
CC1(C)CCC2=C(O1)c1ccccc1C(=O)C2=O [β-lapachone, 3,4-dihydro-2,2-dimethyl-2H-naphtho[1,2-b]pyran-5,6-dione]	–	–	reduced	reduced	30-40%	no significant re-growth	relatively non-toxic	0.5 µM	upregulated
